Results: patent publication US10925885B2, “Thyromimetics for the treatment of fatty liver diseases” (Metabasis Therapeutics, Inc., priority 2005, dated 2021)
Entries after “also recorded” stand apart in the source; their conditions may differ.

Legend:
hepatic steatosis [1] = experiment: Hepatic steatosis measured chemically and histologically in ob/ob mice; assay type: in vivo; conditions: oral administration of cis-13-1
Description: (§1) Methods: ob/ob mice were maintained on a standard diet. Compound cis-13-1 was administered at doses of 3, 10 and 30 mg/kg/d orally in a CMC suspension. T3, 100 nmole/kg/d, was administered as an aqueous solution subcutaneously. Liver triglycerides were analyzed as described in example A. Epididymal fat pads were removed and weighed. Clinical chemistry analysis was performed by LabCorp (San Diego, Calif.).

[2] = test system: thyroid-responsive genes in the liver; conditions: T3-treated vs hypothyroid mice; cited from earlier work
[3] = Body weight change, chronic exposure in normal rats; assay type: in vivo, rats (Sprague-Dawley); conditions: 1 mg/kg/day continuous infusion; for Body Weight (% change from start): normal Sprague-Dawley rats, subcutaneous osmotic pump, one week; for Effect on body weight, in words: normal rats
Description: (§2) Methods: Normal rats (Sprague-Dawley) were maintained on a standard diet. Compounds 7, 17, 6, TRIAC or T3 were administered by continuous infusion using an osmotic pump (Alzet; subcutaneous implant) at a dose of 1 mg/kg/day. The compounds were dissolved in 0.1N NaOH solution and the pH adjusted to 7.4-8.0. The compounds were brought up to an appropriate volume using PBS and BSA to maintain solubility within the pump. The compounds were chemically stable in the excipient at 37° C. for 7 days. Body weights were measured and the change from the starting body weight was calculated. The 4.5% reported for the vehicle animals represent a 4.5% increase in body weight over the course of the experiment.

[4] = Epididymal fat pad weight in ob/ob mice; assay type: in vivo
Description: as §1

liver triglycerides [5] = experiment: Liver triglycerides, chronic exposure in normal rats; assay type: in vivo, rats (Sprague-Dawley); conditions: 1 mg/kg/day continuous infusion; for Triglycerides (mg/g liver): normal Sprague-Dawley rats, subcutaneous osmotic pump, one week; for Effect on liver (hepatic) triglyceride content, in words: normal rats, systemic administration
Description: The purpose of these studies was to compare the difference in efficacy to clear liver triglyceride content between T3 and various T3 mimetics that are carboxylic acids and T3 mimetics that are phosphonic acids. In one example, T3 and Compounds 7 and 17, which differ only in that for Compound 7, the X moiety of Formula II is —P(O)OH2 and for Compound 17, X is —C(O)OH, were compared. In the same example TRIAC and Compound 6, which differ only in that for Compound 6, X is —P(O)OH2 and for TRIAC, X is —C(O)OH, were compared. Efficacy was measured by analyzing total liver triglycerides.
as §2
(§3) Sections of liver were removed and frozen. Liver triglycerides were analyzed following lipid extraction by the Bligh Dyer method (Bligh and Dyer, Can. J. Med. Sci. 37(8):911-7 (1959), incorporated herein by reference). Total triglycerides were analyzed in the liver extracts by an enzymatic assay (Thermo Electron Corporation). Total lipid was normalized to initial liver weight and triglyceride content was normalized to liver weight mGPDH activity was analyzed in isolated mitochondria using 2-(4-iodophenyl)-3-(4-nitrophenyl)-5-phenyl tetrazolium chloride as the terminal electron acceptor (Gardner R S, Analytical Biochemistry 59:272 (1974)). Commercially available GPDH was used in each assay as a standard (Sigma, St. Louis, Mo.).

mGPDH = experiment: Liver mGPDH activity in isolated mitochondria, normal rats; assay type: in vivo; conditions: normal Sprague-Dawley rats, 1 mg/kg/day continuous infusion, subcutaneous osmotic pump
Description: as §2, §3

liver triglycerides [6] = experiment: Liver triglycerides, chronic exposure in ob/ob mice; assay type: in vivo
Description: as §3
The purpose of these studies was to compare the difference in efficacy to clear liver triglyceride content between Compound cis-13-1 and T3 in ob/ob mice.
as §1

hepatic steatosis [7] = experiment: Liver steatosis (H&E sections) in ZDF rats; assay type: in vivo, Zucker diabetic fatty (ZDF) rats; conditions: oral, CMC suspension
Description: Methods: ZDF rats were maintained on a standard diet (5008). Compounds cis-13-1 or 18 were administered orally at the indicated doses using a CMC suspension. Liver steatosis was analyzed visually following H&E staining of paraffin embedded liver sections. TSH was measured using a rodent specific kit (Amersham Biosciences). At the end of the experiment, the left ventricle was cannulated with a high fidelity catheter-tip transducer (Millar) via the right carotid artery. Left ventricle pressure, its first derivative (LV dP/dt), lead I ECG, and heart rate triggered off the ECG waveform, were recorded.

liver TG = conditions: thyroxine treatment, cited from earlier work
[8] = T3 100 nmole/kg/d subcutaneously

3,3′,5′-triiodothyronine [Compound T3]
Effect on hepatic steatosis measured chemically and histologically, in words (hepatic steatosis [1]): no significant effect on hepatic steatosis | Fold, AM2 receptor [2]: 0.3 Fold | Fold, Actin, α cardiac [2]: 0.3 Fold | Fold, Actin, γ-enteric smooth muscle [2]: 0.3 Fold | Fold, Arylsulfatase A [2]: 0.3 Fold | Fold, B61 [2]: 2.3 Fold | Fold, Bcl-3 [2]: 2.5 Fold | Fold, C11 protein [2]: 0.3 Fold | Fold, Capping protein a-subunit [2]: 0.3 Fold | Fold, Carbonyl reductase (Cbr1) [2]: 3.3 Fold | Fold, Chromodomain-helicase-DNA binding protein CHD-1 [2]: 0.4 Fold | Fold, Cyp4a-10 [2]: 0.3 Fold | Fold, Cytoskeletal β-actin [2]: 0.3 Fold | Fold, EST [2]: 0.4 Fold | Fold, FK506-binding protein (FKBP23) [2]: 0.2 Fold | Fold, FK506-binding protein (FKBP65) [2]: 0.3 Fold | Fold, Fatty acid transport protein (FATP) [2]: 1.8 Fold | Fold, Glucose regulated protein 78 [2]: 0.3 Fold | Fold, Glucose-6-phosphatase [2]: 3.8 Fold | Fold, Glycerophosphate dehydrogenase [2]: 0.3 Fold | Fold, H-2 class I histocompatibility antigen [2]: 0.3 Fold | Fold, Inhibitory G protein of adenylate cyclase, α chain [2]: 0.3 Fold | Fold, Insulin-like growth factor binding protein 1 precursor [2]: 3.0 Fold | Fold, Kinesin-like protein (KipIp) [2]: 2.0 Fold | Fold, Lamin A [2]: 0.3 Fold | Fold, Lupus la protein homolog [2]: 0.3 Fold | Fold, Major urinary protein 2 precursor [2]: 3.9 Fold | Fold, Membrane-type matrix metalloproteinase [2]: 0.2 Fold | Fold, Mitochondrial genome [2]: 0.4 Fold | Fold, Murine vik5variant in the kinase [2]: 0.1 Fold | Fold, Myosin binding protein H (MyBP-H) [2]: 2.2 Fold | Fold, NfiB1-protein (exon 1-12) [2]: 0.3 Fold | Fold, Nuclear-encoded mitochondrial acyltransferase [2]: 0.2 Fold | Fold, PHAS-II [2]: 0.3 Fold | Fold, Protein kinase C inhibitor (mPKCl) [2]: 2.1 Fold | Fold, Protein kinase C, Θ type [2]: 0.3 Fold | Fold, Protein kinase ζ [2]: 0.5 Fold | Fold, Putative ATP-dependent RNA helicase PL10 [2]: 0.3 Fold | Fold, Putative SH3-containing protein SH3P12 [2]: 0.3 Fold | Fold, Putative transcription factor of the insulin gene [2]: 0.3 Fold | Fold, Rho-associated, coiled-coil forming protein kinase p160 [2]: 0.2 Fold | Fold, Serine/threonine kinase (Akt2) [2]: 0.3 Fold | Fold, Skeletal muscle actin [2]: 0.3 Fold | Fold, Spot 14 gene [2]: 8.8 Fold | Fold, T-complex protein 1, d subunit [2]: 0.3 Fold | Fold, TGN38B [2]: 0.3 Fold | Fold, Terminal deoxynucleotidyltransferase [2]: 0.3 Fold | Fold, Thymic stromal stimulating factor [2]: 0.3 Fold | Fold, Ubiquitin-activating enzyme E1 X [2]: 0.3 Fold | Fold, Virus-like (VL30) retrotransposon BVL-1 [2]: 0.3 Fold | Fold, ece1 (endothelin-converting enzyme) [2]: 0.2 Fold | Fold, α-2,3-Sialyltransferase [2]: 0.3 Fold | Fold, α-Adaptin [2]: 0.3 Fold | Fold, α-Globin [2]: 2.7 Fold | Fold, β-2 Adrenergic receptor [2]: 3.4 Fold | Fold, β-Galactoside α 2,6-sialyltransferase [2]: 0.3 Fold | Fold, β-Globin [2]: 2.3 Fold | Body Weight (% change from start) [3]: −8.2 ± 1.5 % change from start | Effect on body weight, in words ([3]; 1 mg/kg/day): decreased body weight; also recorded: loss of body weight | EFP weight [4, 8]: 2.0 ± 0.1 g | Effect on epididymal fat pad (EFP) weight, in words ([4]; cis-13-1 oral, T3 100 nmole/kg/d s.c.): significantly decreased EFP weight; also recorded: significantly decreased epididymal fat pad weight | Triglycerides (mg/g liver) (liver triglycerides [5]): 3.6 ± 0.6 mg/g liver | Effect on liver (hepatic) triglyceride content, in words (liver triglycerides [5]; 1 mg/kg/day): did not demonstrate a decrease in hepatic triglyceride content; also recorded: did not significantly decrease liver triglyceride content | Liver mGPDH activity (% vehicle) (mGPDH): 406 ± 54 % vehicle | Liver Trigs (liver triglycerides [6]; [8]): 86 ± 5 mg/g | Effect on liver (hepatic) triglyceride content, in words (liver triglycerides [6]; cis-13-1 oral 3, 10, 30 mg/kg/d, T3 100 nmole/kg/d s.c.): did not significantly decrease liver triglyceride content

O=P(O)(O)Cc1cc(I)c(Oc2ccc(O)c(I)c2)c(I)c1 [Compound 6]
Body Weight (% change from start) [3]: 8.7 ± 0.8 % change from start | Effect on body weight, in words [3]: did not decrease body weight | Triglycerides (mg/g liver) (liver triglycerides [5]): 1.3 ± 0.2 mg/g liver | Effect on liver (hepatic) triglyceride content, in words (liver triglycerides [5]): significant decrease in hepatic triglyceride content | Liver mGPDH activity (% vehicle) (mGPDH): 291 ± 37 % vehicle

Cc1cc(OCP(=O)(O)O)cc(C)c1Cc1ccc(O)c(C(C)C)c1 [Compound 7]
Body Weight (% change from start) [3]: 9.1 ± 1.5 % change from start | Effect on body weight, in words [3]: did not decrease body weight | Triglycerides (mg/g liver) (liver triglycerides [5]): 1.3 ± 0.4 mg/g liver | Effect on liver (hepatic) triglyceride content, in words (liver triglycerides [5]): significant decrease in hepatic triglyceride content | Liver mGPDH activity (% vehicle) (mGPDH): 399 ± 40 % vehicle

Cc1cc(OCC(=O)O)cc(C)c1Cc1ccc(O)c(C(C)C)c1 [Compound 17]
Body Weight (% change from start) [3]: −5.4 ± 1.0 % change from start | Effect on body weight, in words ([3]; 1 mg/kg/day): decreased body weight | Effect on body weight, in words ([3]; listed as compound 17, 1 mg/kg/day): loss of body weight | Triglycerides (mg/g liver) (liver triglycerides [5]): 1.8 ± 0.3 mg/g liver | Effect on liver (hepatic) triglyceride content, in words (liver triglycerides [5]): significant decrease in hepatic triglyceride content | Liver mGPDH activity (% vehicle) (mGPDH): 426 ± 45 % vehicle

CC(C)c1cc(Oc2c(Cl)cc(CC(=O)O)cc2Cl)ccc1O [Compound 18]
Effect on hepatic steatosis (visual, H&E), in words (hepatic steatosis [7]): visually decreased hepatic steatosis compared to control

O=C(O)Cc1cc(I)c(Oc2ccc(O)c(I)c2)c(I)c1 [TRIAC]
Body Weight (% change from start) [3]: −1.7 ± 0.6 % change from start | Effect on body weight, in words ([3]; 1 mg/kg/day): decreased body weight; also recorded: loss of body weight | Triglycerides (mg/g liver) (liver triglycerides [5]): 1.5 ± 0.4 mg/g liver | Effect on liver (hepatic) triglyceride content, in words (liver triglycerides [5]): significant decrease in hepatic triglyceride content | Liver mGPDH activity (% vehicle) (mGPDH): 384 ± 28 % vehicle

N[C@@H](Cc1cc(I)c(Oc2cc(I)c(O)c(I)c2)c(I)c1)C(=O)O [thyroxine, 3,3′,5,5′-tetraiodothyronine]
Decrease of liver TG (liver TG; after one week): 5 fold | Rebound of liver TG (liver TG; by the end of five weeks): 4 fold
